Laboratory results taken from ChEMBL document CHEMBL1201862, “PubChem BioAssay data set” (2004).
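Briefly, cells in 96-well plates were exposed to five compound concentrations for 48 h, and endpoints were estimated by linear interpolation. At the GI50, growth is halved.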 Calls of active or inactive are those of the source. Rule as the data show it: active = GI50 up to about 1.1 µM and inactive = higher.

Key:
Test in all cases: DTP human tumour cell line panel, 48 h
786-0 = tested on: 786-0
A498 = tested on: A498
A549 = tested on: A549
ACHN = tested on: ACHN
CAKI-1 = tested on: CAKI-1
CCRF-CEM = tested on: CCRF-CEM
COLO 205 = tested on: COLO 205
DLD-1 = tested on: DLD-1
DMS-114 = tested on: DMS-114
DMS-273 = tested on: DMS-273
EKVX = tested on: EKVX
HCC 2998 = tested on: HCC 2998
HCT-116 = tested on: HCT-116
HCT-15 = tested on: HCT-15
HL-60 = tested on: HL-60
HOP-18 = tested on: HOP-18
HOP-62 = tested on: HOP-62
HOP-92 = tested on: HOP-92
HT-29 = tested on: HT-29
IGROV-1 = tested on: IGROV-1
K562 = tested on: K562
KM-20L2 = tested on: KM-20L2
KM12 = tested on: KM12
LXFL 529 = tested on: LXFL 529
M14 = tested on: M14
M19-MEL = tested on: M19-MEL
MOLT-4 = tested on: MOLT-4
Malme-3M = tested on: Malme-3M
NCI-H226 = tested on: NCI-H226
NCI-H23 = tested on: NCI-H23
NCI-H460 = tested on: NCI-H460
NCI-H522 = tested on: NCI-H522
OVCAR-3 = tested on: OVCAR-3
OVCAR-4 = tested on: OVCAR-4
OVCAR-5 = tested on: OVCAR-5
OVCAR-8 = tested on: OVCAR-8
RPMI-8226 = tested on: RPMI-8226
RXF 393 = tested on: RXF 393
SF-268 = tested on: SF-268
SF-295 = tested on: SF-295
SF-539 = tested on: SF-539
SK-MEL-28 = tested on: SK-MEL-28
SK-MEL-2 = tested on: SK-MEL-2
SK-MEL-5 = tested on: SK-MEL-5
SK-OV-3 = tested on: SK-OV-3
SN12C = tested on: SN12C
SNB-19 = tested on: SNB-19
SNB-75 = tested on: SNB-75
SNB-78 = tested on: SNB-78
SR = tested on: SR
SW-620 = tested on: SW-620
U-251 = tested on: U-251
UACC-257 = tested on: UACC-257
UACC-62 = tested on: UACC-62
UO-31 = tested on: UO-31

CCCCCCCC(=O)OCC1OC(n2cc(F)c(=O)[nH]c2=O)C(N)C(O)C1O (stereo not given)
GI50 (786-0): > 100 µM (inactive)
GI50 (A498): > 100 µM (inactive)
GI50 (A549): > 100 µM (inactive)
GI50 (ACHN): > 100 µM (inactive)
GI50 (CAKI-1): > 100 µM (inactive)
GI50 (CCRF-CEM): > 100 µM (inactive)
GI50 (COLO 205): > 100 µM (inactive)
GI50 (DLD-1): > 100 µM (inactive)
GI50 (DMS-114): > 100 µM (inactive)
GI50 (DMS-273): > 100 µM (inactive)
GI50 (EKVX): > 100 µM (inactive)
GI50 (HCC 2998): > 100 µM (inactive)
GI50 (HCT-116): > 100 µM (inactive)
GI50 (HCT-15): > 100 µM
GI50 (HL-60): > 100 µM (inactive)
GI50 (HOP-18): > 100 µM (inactive)
GI50 (HOP-62): > 100 µM (inactive)
GI50 (HOP-92): > 100 µM (inactive)
GI50 (HT-29): > 100 µM (inactive)
GI50 (IGROV-1): > 100 µM (inactive)
GI50 (K562): > 100 µM (inactive)
GI50 (KM-20L2): > 100 µM (inactive)
GI50 (KM12): > 100 µM (inactive)
GI50 (LXFL 529): > 100 µM (inactive)
GI50 (M14): > 100 µM (inactive)
GI50 (M19-MEL): > 100 µM (inactive)
GI50 (MOLT-4): > 100 µM (inactive)
GI50 (Malme-3M): > 100 µM (inactive)
GI50 (NCI-H226): > 100 µM (inactive)
GI50 (NCI-H23): > 100 µM (inactive)
GI50 (NCI-H460): > 100 µM (inactive)
GI50 (NCI-H522): > 100 µM (inactive)
GI50 (OVCAR-3): > 100 µM (inactive)
GI50 (OVCAR-4): > 100 µM (inactive)
GI50 (OVCAR-5): > 100 µM (inactive)
GI50 (OVCAR-8): > 100 µM (inactive)
GI50 (RPMI-8226): > 100 µM (inactive)
GI50 (RXF 393): > 100 µM (inactive)
GI50 (SF-268): > 100 µM (inactive)
GI50 (SF-295): > 100 µM (inactive)
GI50 (SF-539): > 100 µM (inactive)
GI50 (SK-MEL-28): > 100 µM (inactive)
GI50 (SK-MEL-2): > 100 µM (inactive)
GI50 (SK-MEL-5): > 100 µM (inactive)
GI50 (SK-OV-3): > 100 µM (inactive)
GI50 (SN12C): > 100 µM (inactive)
GI50 (SNB-19): > 100 µM (inactive)
GI50 (SNB-75): > 100 µM (inactive)
GI50 (SNB-78): > 100 µM (inactive)
GI50 (SR): > 100 µM (inactive)
GI50 (SW-620): > 100 µM (inactive)
GI50 (U-251): > 100 µM (inactive)
GI50 (UACC-257): > 100 µM (inactive)
GI50 (UACC-62): > 100 µM (inactive)
GI50 (UO-31): > 100 µM (inactive)
